Data on one compound can be found in publication PMC5771072, “Benefits of VCE-003.2, a cannabigerol quinone derivative, against inflammation-driven neuronal deterioration in experimental Parkinson’s disease: possible involvement of different binding sites at the PPARγ receptor” (Journal of Neuroinflammation, 2018).

The target of this experiment is T1, PPARγ (Homo sapiens, UniProt P37231).
T1 construct: gene PPARG; GAL4-PPARγ
T1 sequence (P37231 1-505): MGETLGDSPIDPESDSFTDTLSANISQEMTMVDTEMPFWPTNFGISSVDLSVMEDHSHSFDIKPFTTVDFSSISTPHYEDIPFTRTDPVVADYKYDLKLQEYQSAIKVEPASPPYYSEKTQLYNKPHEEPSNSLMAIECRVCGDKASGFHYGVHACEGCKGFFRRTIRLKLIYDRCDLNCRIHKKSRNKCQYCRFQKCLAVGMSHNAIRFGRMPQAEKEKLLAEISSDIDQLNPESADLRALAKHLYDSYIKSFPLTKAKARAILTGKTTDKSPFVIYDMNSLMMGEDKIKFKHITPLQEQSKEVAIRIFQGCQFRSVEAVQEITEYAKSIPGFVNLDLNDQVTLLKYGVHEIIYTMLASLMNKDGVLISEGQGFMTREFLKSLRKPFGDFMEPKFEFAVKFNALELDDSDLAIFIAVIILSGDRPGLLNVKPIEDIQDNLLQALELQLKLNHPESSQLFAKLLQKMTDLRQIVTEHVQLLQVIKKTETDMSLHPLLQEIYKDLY
The experiment is described as follows: GAL4-PPARγ/GAL4-luc luciferase transactivation in transfected HEK-293T cells (reference full agonist). It counts as cell-based.

Turning to `CN(CCOc1ccc(CC2SC(=O)NC2=O)cc1)c1ccccn1` (stereo not shown) [Rosiglitazone], the “GAL4-PPARγ/GAL4-luc luciferase transactivation in transfected HEK-293T cells (re)” value is “RGZ activates PPARγ by acting mainly through the canonical binding site”.
